Among the data in PubChem BioAssay AID1902 (Broad Institute, 2009) are EC50 values, retold here.

Structures are written as SMILES. Several values for one entry are separate records, joined by “and”; a condition that tells them apart may be missing. Equal values may be shown once. Activity calls are given as the source filed them.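 How the source made its calls: active means EC50 no more than a set limit of log units above the highest dose; inactive means the rest.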 Some results are limits rather than exact numbers.

The target in the test is S. pyogenes SKKanGAS, kanamycin survival, BacTiterGlo, 6 h. Nature of the test: SKKanGAS survival reduction under kanamycin, dose response, streptokinase promoter inhibitor project, SKKanGAS strain, luminescence, dose confirmation (AID 1902).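 Further: lower survival reflects blocked streptokinase promoter driving kanamycin resistance gene.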

By EC50 is commonly meant the concentration that produces a half-maximal response. In the case of `CC(C)CCn1c(=O)c(C(=O)N/N=C/c2cccc(F)c2)c(O)c2ccccc21`, the EC50 is 1.17 µM.

`COc1ccc(C(=O)N2CCCC(Nc3ccc(C)c(C)c3)C2)cc1F` (stereo not drawn): the EC50 is > 15 µM (inactive).

For `OCCN(CCO)c1ccc(C(c2ccccc2Cl)c2ccc(N(CCO)CCO)cc2Cl)c(Cl)c1`, the EC50 is 5.06 µM.

In the case of `CC(C)(C)c1ccc(OCC(=O)NNC(=S)NC(=O)c2ccco2)c(Br)c1`, the EC50 was < 0.06 µM.

Regarding `CC(C)[C@H](NC(=O)N1CC(=O)Nc2ccccc21)C(=O)N[C@@H](Cc1ccccc1)C(=O)O`, the EC50 was > 15 µM (inactive).

`Cc1ccc(C(=O)Nc2nnc(C3=COCCO3)o2)cc1C`: the EC50 is 2.96 µM.

For the molecule `O=C(Nc1ccc(OC(F)(F)F)cc1)C1CCCN(S(=O)(=O)c2cnc[nH]2)C1` (stereo not drawn), the EC50 is > 15 µM (inactive).

With `CC(Oc1ccc(Cl)cc1)C(=O)NNC(=S)NC(=O)c1ccco1` (stereo not drawn), the EC50 was 0.325 µM.

On to `COc1ccc(Br)cc1/C=C/c1ccc2cccc(O)c2n1`, for which the EC50 was 0.138 µM.

On to `CC1C(=O)C(C)C(c2cc(Cl)ccc2O)NC1c1cc(Cl)ccc1O` (stereo not drawn), for which the EC50 was 2.32 µM.

Consider `O=C(Nc1ccc(Cl)c(Cl)c1)C1CC(=O)N(c2ccc(Br)cc2)C1` (stereo not drawn), for which the EC50 was 4.5 µM.

Turning to `O=C(NNC(=O)c1cc(-c2ccccc2)nc2ccccc12)Nc1cccc(Cl)c1`, the EC50 is 3.87 µM.

On to `Cc1ccccc1NC1=C/C(=N\S(=O)(=O)c2ccc(C(=O)O)cc2)c2ccccc2C1=O`, for which the EC50 was 1.9 µM.

As to `Cc1nn(Cc2c(Cl)cccc2Cl)c(C)c1NC(=O)c1cn(-c2ccccc2)nc1-c1ccccc1`, the EC50 is 9.33 µM.

As to `CC(C)c1ccc(N2C(=O)/C(=C/N(C)C)SC2=S)cc1`, the EC50 was 4.7 µM.

Take `c1ccc(-c2cc3c(NCC4COc5ccccc5O4)ncnc3s2)cc1` (stereo not drawn): the EC50 is 2.98 µM.

Consider `O=c1cc(-c2ccc([N+](=O)[O-])cc2)nc2cc(-c3ccc(F)cc3)[nH]n12`, for which the EC50 is 3.48 µM.

For `O=C(Nc1ccc2nc(-c3ccc4nc[nH]c4c3)[nH]c2c1)c1cccs1`, the EC50 was 15.7 µM.

Regarding `Oc1c(Cl)cc(Cl)c(Cl)c1Cc1c(O)c(Cl)cc(Cl)c1Cl`, the EC50 is 0.202 µM.

As for `COc1ccc(-c2cc(C(F)(F)F)nc(NCc3cccs3)n2)cc1`, the EC50 is 4.95 µM.

Take `C[C@@H](O)[C@H]1C(=O)N2C(C(=O)O)=C(S[C@@H]3CN[C@H](C(=O)N(C)C)C3)[C@H](C)[C@H]12`: the EC50 is 0.127 µM.

As to `O=C(Nc1nnc(C2COc3ccccc3O2)o1)c1ccc(F)cc1` (stereo not drawn), the 50% effective concentration (EC50) was 1.47 µM.

Turning to `Cc1csc(Nc2ccc(Cl)cc2)[n+]1-c1ccc(Cl)cc1`, the EC50 is 11.1 µM.

For the molecule `CCOC(=O)c1cc(-c2ccc(OC(F)F)cc2)nc2c1c(=O)[nH]c(=O)n2C`, the EC50 is 0.392 µM.

For `Cc1nn(-c2ccccc2)c(C)c1/C=N/n1c(-c2ccc(C(C)(C)C)cc2)n[nH]c1=S`, the EC50 is 2.62 µM.

In the case of `CN(C)CCOc1ccc(/C(=C(/CCCl)c2ccccc2)c2ccccc2)cc1`, the EC50 was 4.95 µM.

Regarding `Cc1ccc(C(O)(C(=O)NNc2ccc3ccccc3n2)c2ccc(C)cc2)cc1`, the EC50 was 2.04 µM and 2.98 µM.

In the case of `CCOC(=O)c1sc2nc3c(SCC(=O)O)cc(C(=O)c4cc(F)ccc4O)cn3c(=O)c2c1C`, the EC50 is 2.11 µM.

With `Cc1cc(C)cc(NC(=S)NCCSc2ccc(Cl)cc2)c1`, the EC50 is 13.5 µM.

On to `COc1cccc2sc(Nc3nnc(-c4ccc(F)cc4)o3)nc12`, for which the EC50 is 0.546 µM.

On to `CC1CCc2c(sc3nc(C(C)(C)C)nc(N4CCN(C(=O)CCl)CC4)c23)C1` (stereo not drawn), for which the EC50 was 3.6 µM.

In the case of `O=S(=O)(NCc1nnc2c(C(F)(F)F)cc(Cl)cn12)c1ccccc1`, the EC50 is > 15 µM (inactive).

For the molecule `COc1ccc2[nH]c3c(=O)n(/N=C/c4ccc(OC)c(CN5CCCC5)c4)c(C)nc3c2c1`, the EC50 was 7.06 µM.

As for `CC(=O)NC(=S)Nc1ccc(NC(=S)NC(=O)/C=C/c2ccco2)cc1`, the EC50 was 8.72 µM.

Take `COc1cc(C(=O)NNC(=S)NC(=O)c2ccc(F)cc2)cc(OC)c1OC`: the EC50 is 0.989 µM.

Consider `COc1ccc([N+](=O)[O-])cc1NC(=S)NC(NC(=O)C(c1ccccc1)c1ccccc1)C(Cl)(Cl)Cl` (stereo not drawn), for which the EC50 was 12 µM.

Turning to `Cc1ccc(NC2=C/C(=N\S(=O)(=O)c3cccs3)c3ccccc3C2=O)c(C)c1`, the EC50 was 1.66 µM.

Turning to `Cc1ccc(C(=O)NC(=S)NNC(=O)c2ccccc2O)cc1`, the EC50 was 0.459 µM.

For the molecule `Nc1ccc(N=Nc2ccccc2)c2ccccc12`, the concentration giving a half-maximal response (EC50) was 6.71 µM.

In the case of `COc1cc(OC)c([C@H]2C=C(C)[C@H]3C[C@@H]2C3(C)C)c(OC)c1`, the EC50 is 2.6 µM.

For `O=C(NNC(=O)c1cc(-c2ccc(Cl)cc2Cl)nc2ccccc12)Nc1ccccc1`, the EC50 was 3.04 µM.

For `COc1ccccc1C(=O)NNC(=S)NC(=O)c1sc2ccccc2c1Cl`, the EC50 is < 0.06 µM.

Take `Cc1cc(NC(=O)c2cnccn2)no1`: the EC50 is > 15 µM (inactive).

On to `CCCCNC(=O)c1cn(CC(C)C)c(=O)c2c1c1ccccc1n2C`, for which the EC50 was 9.02 µM.

With `O=C(OCc1ccc(-c2ccccc2)cc1)c1cccc(O)c1`, the EC50 was 6.29 µM.

`C=C1CCC2C(C)(C)[C@@H](O)CC[C@@]2(C)[C@@H]1COc1ccc2ccc(=O)oc2c1` (stereo partly drawn): the EC50 was 11.6 µM.

As for `O=C(O)c1ccc(N/N=C/c2ccc(-c3ccc(Cl)cc3Cl)o2)cc1`, the EC50 is 1.94 µM.

In the case of `CC(C)(C)OC(=O)NCCCC[C@H](NC(=O)c1[nH]cnc1C(=O)Nc1ccc(Cl)cc1)C(=O)OC(C)(C)C`, the 50% effective concentration (EC50) was 2.19 µM.

For `CC(C)(C)c1ccc(OCCCC(=O)NC2=NCCS2)cc1`, the EC50 is 3.87 µM.

With `CCc1cc(-c2n[nH]c(C)c2Oc2ccc(C(C)C)cc2)c(O)cc1O`, the EC50 was 1.85 µM.

On to `COc1cc(C)ccc1NC(=O)Cc1csc(NC(=O)Nc2ccccc2OC)n1`, for which the EC50 was 15.7 µM.

For `CC(=O)NC[C@H]1CN(c2ccc(N3CCOCC3)c(F)c2)C(=O)O1`, the EC50 was 0.158 µM.

As for `CC(=O)N(C1=C(Cl)C(=O)c2ccccc2C1=O)C1CCCCC1`, the EC50 was 9.36 µM.

On to `COc1cccc(/C=N/Nc2cc(C)nc(-c3ccccc3O)n2)c1O`, for which the EC50 is 1.96 µM.

`CCOC(=O)c1sc(NC(=O)CNCc2ccccn2)c(C(=O)OCC)c1C`: the EC50 is < 0.06 µM.

With `CCC(C)(C)c1ccc(OCCCC[n+]2cccc(C)c2)c(C(C)(C)CC)c1`, the EC50 is 7.73 µM.

As for `COc1ccc(C)cc1N=Nc1ccc(O)c2ncccc12`, the concentration giving a half-maximal response (EC50) is 0.168 µM.

As for `Oc1ccccc1/C=N/Nc1nc2ccccc2o1`, the EC50 is 2.42 µM.

In the case of `Cc1c(C)n(Cc2ccc(F)cc2)c2ccc(C(=O)N3CCN(c4ccccn4)CC3)cc12`, the EC50 is 6.11 µM.

For the molecule `COc1ccc(OC)c(C2C=C(C34CC5CC(CC(C5)C3)C4)NC(=S)N2)c1` (stereo not drawn), the EC50 was 2.96 µM.

As for `CCOc1ccc2[nH]c3c(N4CCc5ccccc5C4)ncnc3c2c1`, the 50% effective concentration (EC50) was 7.94 µM.

Regarding `Cc1ccc(C(=O)n2c(N)nc3ccccc32)cc1`, the EC50 was 4.29 µM.

In the case of `COc1ccc(CCNC(=O)c2ccc(CNS(=O)(=O)c3ccc(C(C)(C)C)cc3)cc2)cc1OC`, the EC50 was 7 µM.

`S=c1[nH]nc(-c2cc(-c3ccccc3)n[nH]2)n1/N=C/c1ccc(Br)s1`: the EC50 is 5.22 µM.

In the case of `O=C(N/N=C/c1cc([N+](=O)[O-])ccc1O)C(O)(c1ccccc1)c1ccccc1`, the EC50 is 6.17 µM.

In the case of `CC(C)N1CCc2c(sc(NC(=O)c3ccc([N+](=O)[O-])o3)c2C(N)=O)C1`, the 50% effective concentration (EC50) is 3.5 µM.

Take `COC(=O)c1ccc(CN(c2ccc(C(=O)O)c(O)c2)S(=O)(=O)c2ccc(Cl)c([N+](=O)[O-])c2)cc1`: the EC50 was 2.63 µM.

`Cc1cc2n(n1)C(c1c[nH]c3ccccc13)Nc1ccccc1-2` (stereo not drawn): the concentration for a half-maximal effect (EC50) is 7.65 µM.

Take `Cc1ccc(C)c(-c2csc(N)c2C(=O)OC(C)C)c1`: the EC50 was 3.11 µM.

Turning to `Cc1cc(C)c2nc(NNC(=O)c3ccc(S(=O)(=O)N4CCCCC4)cc3)sc2c1`, the EC50 was 1.86 µM.

With `COc1ccc(NC(=O)C(=O)NNC(=O)C(C)Oc2ccc(Cl)cc2Cl)cc1` (stereo not drawn), the EC50 was 3.31 µM.

Turning to `Oc1c(C(Nc2ccccn2)c2cccnc2)cc(Cl)c2cccnc12` (stereo not drawn), the EC50 was 2.46 µM.

On to `N#Cc1c(-c2ccccc2)nc(SCc2ccc(Cl)cc2)[nH]c1=O`, for which the EC50 was 6.47 µM.

Consider `FC(F)Oc1ccccc1C1CC(c2ccc(Br)s2)Nc2ncnn21` (stereo not drawn), for which the EC50 is 2.83 µM.

For `COC(=O)c1ccc(N2CCN(C)CC2)c(NC(=O)COc2ccc(C)cc2)c1`, the EC50 is > 15 µM (inactive).

For the molecule `O=C(/C=C/c1c[nH]c2ccccc12)c1c(O)n(CCc2ccccc2)c(=O)[nH]c1=O`, the EC50 is 3.11 µM.

Regarding `COc1cccc(NC(=S)NN=C2CCCCCC2)c1`, the EC50 is 1.77 µM.

Consider `O=C(COc1ccccc1-c1ccccc1)N/N=C/c1ccc2ccccc2c1`, for which the EC50 was 6.47 µM.

As for `CC(=O)NC(c1ccccc1)c1cc(Cl)c2cccnc2c1O` (stereo not drawn), the concentration giving a half-maximal response (EC50) is 1.17 µM.

For the molecule `Cc1ccc(C(=O)NNC(=S)NC(=O)c2ccc(Cl)cc2Cl)cc1`, the concentration giving a half-maximal response (EC50) was 0.09 µM.

As for `Cc1ccc(S(=O)(=O)Nc2cc(Cl)c(O)c3ncccc23)cc1`, the concentration giving a half-maximal response (EC50) is 7.11 µM.

`Cc1ccc(S(=O)(=O)Nc2cccc3cccnc23)c([N+](=O)[O-])c1`: the half-maximal effective concentration (EC50) is 0.632 µM.

In the case of `Cc1cccc(OC(=O)c2sc3ncn(C)c(=O)c3c2C)c1`, the concentration giving a half-maximal response (EC50) was 4.09 µM.

Consider `COc1cc([N+](=O)[O-])cc(/C=N/NC(=O)c2cc(-c3ccccc3)nc3ccccc23)c1O`, for which the EC50 was 3.2 µM.

Take `N#C/C(=C(/O)CN1CCN(c2ccccc2F)CC1)c1nc(-c2ccccc2)cs1`: the EC50 was 12.2 µM.

For the molecule `O=C(NCc1nnc(SCC(=O)N2CCOCC2)o1)c1c(F)cccc1F`, the EC50 was > 15 µM (inactive).

`CCCCCn1c(CN2CCN(c3cc(Cl)ccc3C)CC2)nc2c1c(=O)[nH]c(=O)n2C`: the EC50 was 2.5 µM.

`O=C(CN1c2ccccc2Sc2ccccc21)NNC(=O)Nc1ccc(Cl)c(Cl)c1`: the concentration for a half-maximal effect (EC50) was 2.23 µM.

As to `Cc1ccccc1CN1CCCN(Cc2ccc(Cl)cc2)S1(=O)=O`, the EC50 is 4.05 µM.

In the case of `CC1(C(=O)OCC(=O)Nc2nc(-c3ccc(F)c(F)c3)cs2)CC1(Cl)Cl` (stereo not drawn), the concentration for a half-maximal effect (EC50) was 6.72 µM.

Consider `CC(C)CN(Cc1cc(=O)oc2cc(-c3ccccc3)c(O)cc12)CC(C)C`, for which the EC50 is 3.88 µM.

In the case of `Oc1ccc(N=Nc2ccc3c(c2)OCCO3)c2cccnc12`, the EC50 is 0.257 µM.

Consider `CCCCC(CC)CN1C(=O)/C(=C/c2ccncc2)SC1=S` (stereo not drawn), for which the EC50 is 2.83 µM.
